From US20060241132A1, “Spiro derivatives and adhesion molecule inhibitors comprising the same as active ingredient” (Toray Industries, Inc. A Corporation of Japan, priority 2002, published 2006) come the findings set out here.

The test system of experiment [1] is DNFB-induced ear swelling in Balb/c mouse. In words: Mouse allergic inflammation: DNFB-induced ear swelling after anti-DNP IgE sensitization. It counts as in vivo. Particulars: male Balb/c mouse, anti-DNP IgE sensitized. The procedure: Inhibitory Effect of Compounds Against Mouse Allergic Inflammation
Using a seven-week old male Balb/c mouse (Charles River Japan, Inc.), sensitization was carried out by intravenously administering anti-DNP mouse IgE antibody. Twenty-four hours after sensitization, 0.38% DNFB (2,4-dinitrofluorobenzene) which was dissolved in a mixed solution of acetone:olive oil at 4:1 was applied to the right auricle of the mouse to induce inflammation. The thickness of both auricles was measured each hour after induction with a thickness gauge to calculate the ear swelling ratio (%) after induction versus pre-induction. The test compounds were dissolved in ethanol for applying to the auricle before induction.

Experiment [2] has as its target soluble VLA-4 (Homo sapiens, UniProt P05556+P13612). Put plainly: Inhibition of binding between CS-1 peptide and soluble VLA-4. Particulars: absorbance at 490 nm, read-out: Inhibitory activity (IC50: nM). The procedure:
The inhibitory activity of the compound according to the present invention against the adhesion of VLA-4 may be determined by using an adhesion-measuring system in which the adhesion between VLA-4-expressing cells such as Ramos cells or Jurkat cells and fibronectin or fibronectin fragment such as a peptide containing CS-1 sequence (Gly Pro Glu He Leu Asp Val Pro Ser Thr) (hereinafter referred to as “CS-1 peptide”) immobilized on an immunoplate is measured. Alternatively, a binding-measuring system in which the adhesion between VLA-4 protein and fibronectin or fibronectin fragment such as CS-1 peptide immobilized on an immunoplate is measured may be used. In the present invention, it is preferred to evaluate the inhibitory activity of a compound using a binding-measuring system of soluble VLA-4 with CS-1 peptide (WO 98/32771), but the method is not restricted thereto. When testing the inhibitory effect of a compound, it is preferred to mix the soluble VLA-4 and the test compound beforehand.
Inhibitory Effect of Compounds Against Binding between CS-1 Peptide and Soluble VLA-4
The test compounds were evaluated in accordance with the method described in WO 98/32771. That is, in accordance with the teaching of a report (J. Bio. Chem., 262, 6886 (1987)), a conjugate between a peptide (Gys Leu His Gly Pro Glu Glu Ile Leu Asp Val Pro Ser Thr) containing CS-1 sequence and rabbit IgG (Sigma) was prepared. […]
Each compound and soluble VLA-4 (100 μl) were preliminarily reacted at room temperature for 20 minutes, and then the resulting mixture was allowed to react with the CS-1 peptide in each well at 30° C. for 3 hours. […] Then o-phenylenediamine as a substrate was added to color the reaction solution, and the absorbance at 490 nm was measured. From this absorbance, the binding inhibitory activity of each compound was determined.

Sequence of soluble VLA-4 (P13612 35-977 limits assumed): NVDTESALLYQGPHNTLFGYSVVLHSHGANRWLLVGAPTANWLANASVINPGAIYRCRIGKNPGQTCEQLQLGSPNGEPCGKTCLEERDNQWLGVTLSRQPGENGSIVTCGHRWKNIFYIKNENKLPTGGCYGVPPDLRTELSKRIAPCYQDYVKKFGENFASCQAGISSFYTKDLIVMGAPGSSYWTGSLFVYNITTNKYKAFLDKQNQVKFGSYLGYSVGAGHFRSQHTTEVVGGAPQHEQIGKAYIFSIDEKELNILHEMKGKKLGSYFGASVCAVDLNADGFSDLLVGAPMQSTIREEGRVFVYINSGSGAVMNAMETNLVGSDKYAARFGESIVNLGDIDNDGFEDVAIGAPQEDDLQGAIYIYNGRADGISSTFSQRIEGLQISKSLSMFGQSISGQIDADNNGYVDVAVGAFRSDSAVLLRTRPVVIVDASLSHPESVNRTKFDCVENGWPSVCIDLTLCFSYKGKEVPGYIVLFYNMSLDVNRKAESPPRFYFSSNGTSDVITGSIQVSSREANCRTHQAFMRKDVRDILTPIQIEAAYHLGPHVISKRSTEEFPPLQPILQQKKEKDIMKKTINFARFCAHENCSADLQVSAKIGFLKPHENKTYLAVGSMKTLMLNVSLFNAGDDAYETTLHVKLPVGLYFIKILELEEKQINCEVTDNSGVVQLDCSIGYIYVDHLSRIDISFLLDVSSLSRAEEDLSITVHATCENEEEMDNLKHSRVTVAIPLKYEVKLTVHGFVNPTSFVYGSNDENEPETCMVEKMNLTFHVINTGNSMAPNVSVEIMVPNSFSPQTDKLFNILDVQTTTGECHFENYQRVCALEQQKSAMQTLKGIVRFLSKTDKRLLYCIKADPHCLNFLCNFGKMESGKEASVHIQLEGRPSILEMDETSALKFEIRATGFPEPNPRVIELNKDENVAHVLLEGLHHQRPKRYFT
Sequence of soluble VLA-4 (P05556 21-728 limits assumed): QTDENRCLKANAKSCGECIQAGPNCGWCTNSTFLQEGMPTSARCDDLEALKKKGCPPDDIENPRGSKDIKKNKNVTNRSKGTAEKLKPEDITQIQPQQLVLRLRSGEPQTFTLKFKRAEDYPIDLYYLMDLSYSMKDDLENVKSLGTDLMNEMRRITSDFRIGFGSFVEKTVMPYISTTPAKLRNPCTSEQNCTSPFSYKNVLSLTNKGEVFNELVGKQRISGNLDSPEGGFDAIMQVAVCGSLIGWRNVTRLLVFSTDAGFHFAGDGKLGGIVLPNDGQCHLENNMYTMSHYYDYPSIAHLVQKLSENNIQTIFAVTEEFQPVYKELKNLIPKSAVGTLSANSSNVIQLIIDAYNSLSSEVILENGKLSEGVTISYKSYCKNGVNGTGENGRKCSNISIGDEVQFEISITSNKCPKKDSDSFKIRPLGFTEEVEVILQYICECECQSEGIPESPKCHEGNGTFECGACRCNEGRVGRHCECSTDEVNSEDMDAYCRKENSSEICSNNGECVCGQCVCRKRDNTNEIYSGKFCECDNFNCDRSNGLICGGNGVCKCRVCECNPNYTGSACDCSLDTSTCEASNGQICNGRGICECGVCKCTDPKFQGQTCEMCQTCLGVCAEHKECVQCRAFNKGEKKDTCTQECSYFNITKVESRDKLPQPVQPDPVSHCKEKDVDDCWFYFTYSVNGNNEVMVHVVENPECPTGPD

As to `CC(=O)N1CCC[C@H]1C(=O)NC(CNC(=O)N1CCC2(CC1)C(=O)NCN2c1ccccc1)C(=O)O` (stereo partly drawn) [Compound 16, 2-(((2S)-1-Acetylpyrrolidine-2-yl)carbonylamino)-3-((2,4,8-triaza-1-oxo-4-phenylspiro[4.5]dec-8-yl)carbonylamino)propanoic acid], in experiment [1] (0.38% DNFB on right auricle, compound in ethanol applied to the auricle before induction), the “ED 50 value, suppression of the increase in the ratio of ear swelling” value is 0.8 mg/kg. The “suppression of the increase in the ratio of ear swelling from DNFB induction” value in experiment [1] (DNFB-induced, compound applied to the auricle before induction) was “suppressed the increase in the ratio of ear swelling in a dose-dependent manner”. Also, in experiment [2], the IC50 (in general, the concentration needed to halve the response being measured) came out at 110 nM. `Cc1cccc(Cl)c1S(=O)(=O)NC(CNC(=O)N1CCC2(CC1)C(=O)N(C)CN2c1ccccc1)C(=O)O` (centres unmarked) [Compound 8, 2-(((2-Chloro-6-methylphenyl)sulfonyl)amino)-3-((2,4,8-triaza-2-methyl-1-oxo-4-phenylspiro[4.5]dec-8-yl)carbonylamino)propanoic acid]: the half-maximal inhibitory concentration (IC50) in experiment [2] was found to be 110 nM. Still for that read-out and setting: in the case of `CC(=O)N1CCCCC1C(=O)NC(CNC(=O)N1CCC2(CC1)C(=O)NCN2c1ccccc1)C(=O)O` (centres unmarked) [Compound 18, 2-((1-Acetyl(2-piperidyl))carbonylamino)-3-((2,4,8-triaza-1-oxo-4-phenylspiro[4.5]dec-8-yl)carbonylamino)propanoic acid] it was 65 nM.
